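A five-concentration, 48-hour dose response in 96-well plates underlies each endpoint, interpolated linearly between surrounding concentrations. TGI: total growth inhibition.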
Key:
Assay in all cases: NCI tumour cell line growth inhibition, 48 h
DLD-1 colon = tested on: DLD-1 colon
DMS 114 small cell lung = tested on: DMS 114 small cell lung
DMS 273 small cell lung = tested on: DMS 273 small cell lung
KM20L2 colon = tested on: KM20L2 colon
LXFL 529 NSCLC = tested on: LXFL 529 NSCLC
M19-MEL melanoma = tested on: M19-MEL melanoma
HOP-18 NSCLC = tested on: HOP-18 NSCLC
RXF-631 renal = tested on: RXF-631 renal
XF 498 CNS = tested on: XF 498 CNS

Compound	TGI (DLD-1 colon) [µM]	TGI (DMS 114 small cell lung) [µM]	TGI (DMS 273 small cell lung) [µM]	TGI (KM20L2 colon) [µM]	TGI (LXFL 529 NSCLC) [µM]	TGI (M19-MEL melanoma) [µM]	TGI (HOP-18 NSCLC) [µM]	TGI (RXF-631 renal) [µM]	TGI (XF 498 CNS) [µM]
Cc1nc2ccc(N=Nc3c(O)ccc4ccccc34)cc2[nH]1	66.2	63	33.5	> 100	37.3	42.7			
CCOC(=O)[C@H](Cc1ccccc1)NC(=O)c1nc[nH]c1[N+](=O)[O-]	> 100	> 100	> 100		> 100	> 100			
COc1ccc(Cc2cc(OC)c(OC)c(OC)c2)cc1O	> 100	0.137	> 100	> 100	> 100	> 100	> 31.6	> 100	> 100
COC(=O)C(CCC1(C)OCCO1)C(C)=O (centres undefined)	> 100	> 100	> 100	> 100	> 100	> 100	> 100	> 100	> 100
Cc1ccc(/C=C/C(=O)c2sc(C(N)=S)nc2C)cc1	> 100		> 100	> 100		> 100	> 100		
COC(=O)C(C(=O)C(=O)Nc1c(Cl)cc([N+](=O)[O-])cc1Cl)c1nc2cc(C)c(C)cc2[nH]c1=O (centres undefined)	> 100	> 100	> 100	> 100	> 100	> 100	> 100	> 100	
COc1ccc(C2Cc3cc(OC)c(OC)c(OC)c3C2=O)cc1 (centres undefined)	> 100	> 100	> 100	> 100		> 100	> 100		
CCN(CC)CC(O)CNc1ccc(NCC(O)CCl)c2c1C(=O)c1ccccc1C2=O (centres undefined)	38.9		13.6	18.5	15.8	22.1			26.9
COc1ccc(NC(=O)CSc2nnc(Cc3ccccc3)o2)cc1	> 100	> 100	> 100	> 100	> 100	> 100	> 100		
CC(=O)N(/N=C\c1ccc([N+](=O)[O-])cc1)c1ccccc1	> 100	> 100	> 100	> 100		> 100	> 100	> 100	> 100
CNC(=S)NNC(=O)c1c(C)nc2sccn12	> 100		> 100	> 100	> 100	> 100	> 100	> 100	> 100
O=S1(=O)COc2ccccc2-c2ncncc21	> 100	> 100		> 100	> 100	> 100	> 100	> 100	
Cn1c(=O)c2c(ncn2CCCCn2ccnc2[N+](=O)[O-])n(C)c1=O		> 100	> 100	> 100	> 100	> 100			> 100
N#Cc1ccc(Nc2cnc3cc(N)ccc3n2)cc1	> 100	> 100	> 100	> 100	> 100	> 100			> 100
COC1=C(C)C(=O)C2C(C1=O)C(c1ccc(OC)c(OC)c1)[C@H]2C (some centres undefined)	> 100		> 100		> 100	> 100		> 100	> 100
CC(C)Cc1ccc(C(C)/C=C2\CCC(CN3CCOCC3)C2=O)cc1 (centres undefined)	9.36	42.4		31.5	4.09	28.8	19.2	41.2	30
CSc1nc2nc(C)c(C)nc2c(=O)[nH]1	> 100	> 100	> 100	> 100	> 100	> 100	> 100		> 100
O=C(CC(=O)C(=O)CC(=O)OCc1ccccc1)OCc1ccccc1	> 100	> 100		> 100	> 100	> 100			

Reference: PubChem BioAssay (NCI)
